In patent US6465521B1, “Composition for desorbing bacteria” (Ramot University Authority for Applied Research & …, priority 1988, dated 2002):

How the values were obtained:
Assay type in all cases: cell-based
[1] = test system: Acinetobacter calcoaceticus RAG-1 (ATCC 31012); test: Adhesion of RAG-1 to various oils (percent drop in turbidity after vortexing with oil); conditions: for Percent adhesion to: mineral oil 50 / Percent adhesion to: n-nexadecane / Percent adhesion to: soybean oil: 0.16 ml of 0.5% detergent added, vortexed 2 min
Procedure: In one experiment Acinetobacter calcoaceticus RAG-1 (ATCC 31012) cells were grown overnight with vigorous shaking at 30 C in brain heart infusion broth. The cells were harvested by centrifugation and washed twice in 0.2% saline. The cells were then suspended in 0.2% saline to a corrected optical density of about 15 at 400 nm (1 cm light path). To 1.2 ml of suspended bacteria in 4 ml square disposable polystyrene cuvettes were added the following: 0.16 ml of 0.5% detergent in water (or water for control) and 0.24 ml water. Following brief mixing, 0.2 ml of oil was added (vs. controls with no oil added) and the mixtures vortexed vigorously for 2 min. Following about thirty minutes, the corrected turbidity of the lower aqueous phase was measured at 400 nm. Adhesion is calculated as the percent drop in turbidity following the mixing procedure.
The ability of another cationic surface-active agent, chlorhexidine digluconate, to enhance microbial adhesions to oil droplets is shown in the following experiment. Actnetobacter calcoaceticus RAG-1 (ATCC 31012) cells were grown overnight with vigorous shaking at 30 C in brain heart infusion broth. The cells were harvested, washed by centrifugation, and suspended in 0.2% saline to a corrected optidal density of ca. 18 at […] (1 cm light path). To 1.2 ml of suspended bacteria in 4 ml square disposable polystyrene cuvettes were added the following: 0.16 ml of 0.5% chlorhexidine digluconate in water (or water for control) and 0.24 ml water. To each cuvette 0.2 ml of oil was added (vs. control with no oil added) and the mixtures vortexed vigorously for 2 min. After about thirty minutes, the turbidity of the lower aqueous phase was measured at 400 nm and corrected for non-linearity by a standard curve. Adhesion is calculated as the percent drop in corrected turbidity following the mixing procedure.

Escherichia coli CSH 57 = test: Adhesion of Escherichia coli CSH 57 to hexadecane; conditions: 0 without
Candida albicans = test: Adhesion of the yeast Candida albicans to hexadecane; conditions: for adhesion of C. albicans to hexadecane: 0.16% cetyl pyridinium chloride; for adhesion of the yeast Candida albicans: 20 without
[2] = test system: Acinetobacter calcoaceticus MR-481; test: Adhesion of Acinetobacter calcoaceticus MR-481 to oil droplets; conditions: 0 without
[3] = 0.16 ml of 0.5% chlorhexidine digluconate added, 0.2 ml oil

CCCCCCCCCCCCCCCC[n+]1ccccc1 [Cetylpyridinium chloride, cetylpyridinium chloride]
Percent adhesion to: mineral oil 50 ([1]; 0.2 ml oil): 80%
Percent adhesion to: n-nexadecane ([1]; 0.2 ml oil): 83%
Percent adhesion to: soybean oil ([1]; 0.2 ml oil): 47%
adhesion of Escherichia coli CSH 57 to hexadecane (Escherichia coli CSH 57; 0.08% cetylpyridinium chloride present): 98%
adhesion of C. albicans to hexadecane (Candida albicans; 0.8% NaCl present): 18%
adhesion of C. albicans to hexadecane (Candida albicans; no NaCl): 100%
Adhesion of Acinetobacter calcoaceticus MR-481 ([2]; 0.18% of cetylpyridinium chloride): 97%

N=C(NCCCCCCNC(=N)NC(=N)Nc1ccc(Cl)cc1)NC(=N)Nc1ccc(Cl)cc1.O=C(O)[C@H](O)[C@@H](O)[C@H](O)[C@H](O)CO.O=C(O)[C@H](O)[C@@H](O)[C@H](O)[C@H](O)CO [Chlorhexidine digluconate, chlorhexidine digluconate]
Percent adhesion to Commerical soybean oil [1, 3]: 89%
Percent adhesion to Sigma soybean oil [1, 3]: 90%
Percent adhesion to isohexadecane [1, 3]: 94%
Percent adhesion to n-hexadecane [1, 3]: 95%
adhesion of Escherichia coli CSH 57 to hexadecane (Escherichia coli CSH 57; 0.1% chlorhexidine digluconate present): 98%
adhesion of the yeast Candida albicans (Candida albicans; 0.16% chlorhexidine digluconate): 100%

CCCCCCCCCCCCOS(=O)(=O)[O-].[Na+] [Sodium dodecyl sulphate]
Percent adhesion to: mineral oil 50 ([1]; 0.2 ml oil): 0%
Percent adhesion to: n-nexadecane ([1]; 0.2 ml oil): 0%
Percent adhesion to: soybean oil ([1]; 0.2 ml oil): 0%
adhesion to all three test oils ([1]; added at the same concentration as the cetylpyridinium chloride (w/v)): 0%

chitosan
adhesion of Escherichia coli CSH 57 to hexadecane (Escherichia coli CSH 57; 0.015% chitosan present): 97%
adhesion of the yeast Candida albicans (Candida albicans; 0.025% chitosan): 95%
Adhesion of Acinetobacter calcoaceticus MR-481 ([2]; 0.019% of chitosan): 99%
